Source: a melting point compilation (Tetko et al.; mined from patent text by program, amines drawn as free bases though some values may be those of a salt)

Row | melting point [°C] | SMILES
1 | 283 | COc1cc2oc(C(=O)O)cc2cc1Cl
2 | 49 to 50 | CCCc1cc2cc(OC)ccc2[nH]1
3 | 119 to 124 | Cc1cccc(-c2[nH]c(C(C)C)nc2-c2cccc(-c3ccc(N)cn3)c2)n1
4 | 212 to 216 | CCCc1c(C(C)=NO)c2ccc(C(N)=O)cc2n1Cc1ccccc1Cl
5 | 98 to 99 | CCOc1ccc(NCc2ccc(N(C)C)cc2)cc1
6 | 118 to 119 | COc1ccc(C[C@H]2CC[C@@H]3[C@@H](CCC(=O)N3Cc3ccccc3)C2)cc1
7 | 227 to 229 | COc1cccc(N2C(c3ccccc3Cl)=NS(=O)(=O)c3cnccc32)c1
8 | 129 | COc1ccc(-c2cc(=O)n(CC3CC3)nc2-c2ccc(OC)cc2)cc1
9 | 175 to 176 | Cc1nnc(-c2ccc3occ(-c4ccc(S(C)=O)cc4Cl)c3c2)o1 (stereo not given)
10 | 160 to 162 | C[Si](C)(C)c1cccc2cc(C(=O)Nc3ccc(N4CCC4)nc3)n(Cc3cccc(F)c3)c12
11 | 151 to 152 | COc1ccc(-n2c(-c3ccc(OCCCl)cc3)nc3c(OC)cccc3c2=O)cc1
12 | 126 to 127 | CC(C)CC(NC(=O)OCc1ccccc1)C(=O)NC(C#N)COCc1ccccc1 (stereo not given)
13 | 179 to 181 | NC(=O)c1sc2nc(N3CCC(NCC(O)c4cccnc4)CC3)cc(C(F)(F)F)c2c1N (stereo not given)
14 | 200 | O=C(/C=C/c1cccc(S(=O)(=O)N2CCN(c3ncccn3)CC2)c1)NO
15 | 91 | CCOC(=O)C1=C(C)NN=C(CC)C1c1cccc(C#N)c1 (stereo not given)
16 | 124 to 127 | CC(=O)c1cccc(-c2nc3sccn3c2-c2ccnc(N[C@@H]3CCCN(S(=O)(=O)c4ccc(Cl)cc4)C3)n2)c1
17 | 233 to 235 | Nc1c(-c2cc(Cl)ccc2O)c2cc(C(F)(F)F)ccc2[nH]c1=O
18 | 220 to 221 | COc1ccc(NC(=O)c2ccc(-c3ccc(-c4noc(C)n4)cc3C)cc2)cc1C=CCN(C)C
19 | 117 to 119 | COc1ccc(-n2nc(Cl)cc2-c2ccc(OCCNS(C)(=O)=O)cc2)cc1
20 | 101 to 102 | CC(=O)N[C@@H](CSC(=O)C(C)C)C(=O)NCCSC(=O)C(C)(C)C
21 | 78 to 79 | CCCOc1cc(Oc2ccc(C(F)(F)F)cn2)ccc1CCCOc1c(CC(=O)O)cccc1OC
22 | 90 to 92 | C[C@@H](Cn1ncc2ccc(OC[C@@H]3CO3)c(C=O)c21)NC(=O)OCc1ccccc1
23 | 136 to 139 | CS(=O)(=O)Oc1ccc(-c2c3ccccc3cc3sc4ccccc4c23)cc1
24 | 233 to 235 | CCc1nc2c(N)nc3ccc(-c4ccccc4)cc3c2n1CC(C)C
25 | 65 to 67 | CCCC[C@H](NC(=O)[C@H](CC(C)C)NC(=O)OCc1ccccc1)C(=O)CCCc1cccs1

Row | melting point [°C] | SMILES
26 | 141 to 143 | CC(C)N(C(=O)CN1C(=O)Cn2cnnc2-c2ccccc21)c1ccccc1
27 | 178 to 182 | CCCCNC(=O)C(C)CC(O)C1C[C@H](C)CCCCCCNc2cc(cc(OC)n2)C(=O)N1 (stereo not given in full)
28 | 92 to 96 | COC(=O)c1ccc(C(=O)C=CN(C)C)cc1Cl
29 | 146 to 152 | CCN(CCCc1c[nH]c2c(Cl)cccc12)C1COc2c(F)ccc(C(N)=O)c2C1 (stereo not given)
30 | 120 to 125 | CCc1nc2c(C)cc(C)nc2n1Cc1ccc(C(=C(Cl)C(=O)O)c2ccccc2)cc1
31 | 80 to 82 | O=[N+]([O-])c1cc2c(c(Cl)c1OCc1ccccc1)CCCC2
32 | 142 to 144 | Cc1nnc2n1-c1ccccc1CS2
33 | 60 to 61 | CCCNC(=O)NCC1CCCCC1
34 | 136 to 137 | CCCCNC(=O)CCCCCCCSc1nc(-c2ccccc2)c(-c2ccccc2)[nH]1
35 | 85 to 86 | CC1CCCN1CCCN1C(=C(C#N)C#N)N(CCN2CCCCC2)c2ccccc21 (stereo not given)
36 | 370 to 384 | O=C(O)CCc1c(C=C2C(=O)Nc3ccc(Cl)cc32)[nH]c2c1CCCC2
37 | 85 | CCOCCn1cc(C2CCN(CCOc3ccc(C(=O)O)cc3)CC2)c2ccccc21
38 | 83 to 89 | CCCCCCCCCCCCCCCCCCOC(=O)ON1C(=O)c2ccccc2C1=O
39 | 168 to 170 | COc1ncnc(OC)c1[N+](=O)[O-]
40 | 271 to 274 | CCc1cc(=O)c2c([nH]1)CCCN2C(=O)C(F)(F)F
41 | 73.7 to 76.3 | COCc1cc(C)nc2c(OCc3ccccc3)cccc12
42 | 230 to 235 | N#Cc1cccc2c3c([nH]c12)CCNC3
43 | 190 to 195 | CCNC1(c2ccccc2Cl)C(=O)N(Cc2ccc(C(=O)NC(C)(C)C)cc2)c2ccc(Cl)cc21 (stereo not given)
44 | 152 to 154 | CCc1nc2c(N)nc(C)c(C)c2n1CCOCCN
45 | 65 | BrCCON=C1c2ccccc2-n2cccc21
46 | 163 to 164 | CC(C)(C)c1ccccc1N1CCN(C(=O)CC#N)CC1
47 | 150 to 151 | COc1ccccc1C(=O)c1sc(NCCc2ccc(Cl)cc2)nc1N
48 | 148 | COc1ccc(-c2cc(F)c(F)cc2-c2ccc(S(C)(=O)=O)cc2)cc1Cl
49 | 91.5 to 93.3 | CCCCCC(COc1ccc(C(=O)O)cc1)c1ccc2c(c1)OCCC2(C)C (stereo not given)
50 | 232 to 237 | O=C(O)c1cn(-c2nnc(C(F)(F)F)s2)c2nc(Cl)c(F)cc2c1=O

Row | melting point [°C] | SMILES
51 | 201 to 202 | COc1cc(-n2cc[nH]c2=O)c(Cl)cc1Cn1nc(-c2ccc(C(F)(F)F)cc2)oc1=O
52 | 75 to 78 | COc1ccc(NC(=O)C(F)F)cn1
53 | 108 to 110 | CCOC(=O)c1cccn2cc(C(F)(F)F)nc12
54 | 147 | CC(C)CCCC(C)C1CCC2C3CC=C4CC(OC(=O)OCC(N)C(=O)O)CCC4(C)C3CCC12C (stereo not given)
55 | 158 | CC(=O)Nc1cccc2c1CCCC2
56 | 157 to 159 | COc1ccc(S(=O)(=O)C(CCCCc2ccccc2)CC(=O)NO)cc1OC (stereo not given)
57 | 152 to 154 | CC(C)(C)C(=O)Oc1ccc(C(=O)NNC(=O)c2occ(-c3ccccc3)c2-c2ccccc2)cc1C#N
58 | 120 | CCC(C)OC(=O)CCC(S)(C#N)C1=NCCc2cc(OC)c(OC)cc21 (stereo not given)
59 | 101 to 102 | COc1ccc(CSc2ccc([N+](=O)[O-])cc2CO)cc1
60 | 74 to 76 | Cc1nnc(-c2ccccc2O)o1
61 | 149 | O=S(=O)(CF)c1cccc(Br)c1Cl
62 | 77 to 79 | CCOC(=O)CCCCCCCSc1nc(-c2ccccc2)c(-c2ccccc2)[nH]1
63 | 137 to 139 | CC(=O)c1ccc(S(=O)(=O)NN2CCCCC2)cc1
64 | 176 to 177 | Cc1ccccc1-c1ccc(C(=O)N2Cc3ccc(C(=O)NCc4cccnc4)n3Cc3ccccc32)cc1
65 | 166 | CCN(CC)CCN(CC)C(=O)c1ccc(Nc2ccnc3cc(Cl)ccc23)cc1
66 | 107 to 108 | CCOC(=O)c1cc2ccccc2n1Cc1ccc(Cl)cc1
67 | 162 to 164 | CS(=O)c1nnc(Sc2cc(C(C)(C)C)c(O)c(C(C)(C)C)c2)s1 (stereo not given)
68 | 165 | NC(=O)N1CCN(CC(=O)N2CCOCC2)CC1
69 | 208 | Cc1nc2n(c(=O)c1CCN1CCC(c3n[nH]c4cc(F)ccc34)CC1)CCS2
70 | 194 to 195 | COC(=O)c1nc(Br)cc(N)c1Cl
71 | 105 to 112 | COCc1cnc2c(NC(=O)c3c(Cl)cccc3Cl)ccc(C)c2c1N1CCN(C)C1=O
72 | 117 to 118 | CC(C)(C)[Si](C)(C)Oc1ccc(S(N)(=O)=O)cc1
73 | 63 to 65 | CCCCCCCCCc1cc(-c2ccccc2)c(OCC(=O)O)c(-c2ccccc2)c1
74 | 129 to 130 | COc1ccc(-c2cc(C#N)c[nH]2)c(OC)c1
75 | 80 to 82 | CS(=O)(=O)ON=C(Cl)c1ccc(Cl)cc1

Row | melting point [°C] | SMILES
76 | 176 to 177 | c1ccc(CN2CCc3[nH]c4cc(-c5ccccc5)ccc4c3CC2)cc1
77 | 192 | COc1cc(C)nc(NC(=O)NS(=O)(=O)c2ccc(N=[N+]=[N-])cc2)n1
78 | 179 to 180 | O=C(O)c1ccc(OCc2ccccc2)cc1O
79 | 233 to 235 | Cc1cccc2c1NC(=O)c1cccnc1N2
80 | 183 to 184 | CC(=O)N1c2ccccc2-c2c([N+](=O)[O-])cnn2C1c1ccc(Cl)cc1 (stereo not given)
81 | 161 to 164 | COc1cc(Nc2nccc(Nc3ccc(OCc4ccccc4)cc3)n2)cc(OC)c1OC
82 | 127 to 129 | CCC(CC)n1nnc2c(Oc3c(C)cc(C)cc3C)nc(C)c(C)c21
83 | 79.5 to 81 | CCOC(=O)C(CCc1ccc2c(c1)OCO2)(Cc1cc(OC)c(OC)c(OC)c1)C(=O)OCC
84 | 109 to 110 | COCCc1nc2c(N)nc3ccccc3c2n1CCCCCCCCNS(C)(=O)=O
85 | > 250 | C/C(=C\c1ccc(C(=O)Nc2nnn[nH]2)cc1)c1ccc2c(c1)C(C)(C)CCO2
86 | 122 to 124 | COc1ccc(CNc2ncccc2C(=O)Nc2cccnc2Cl)cc1
87 | 154 | CCN(C1CCN(C)CC1)S(=O)(=O)c1ccc(Nc2nccc(Nc3ccc(F)cc3)n2)cc1
88 | 160 to 162 | O=S(=O)(c1cccc(C(F)(F)F)c1)c1cc(Br)nc(N2CCNCC2)c1
89 | 104 to 106 | CN1c2ccccc2CN(C(=O)C(F)(F)F)c2ccccc21
90 | 80 to 85 | CC(C)C[C@H](NC(=O)OCc1ccccc1Cl)C(=O)N[C@@H](Cc1ccccc1)C(=O)CSCc1ccco1
91 | 127 to 129 | Brc1csc2ncnc(NCc3ccccn3)c12
92 | 93 to 94 | CN(CCOc1ccc(CON=C(C(=O)O)c2ccccc2)cc1)c1ccccn1
93 | 154 to 156 | COC(=O)c1ccc(C(=O)N[C@@H]2CCCC[C@@H]2c2ccc(OC)c(OC)c2)cc1
94 | 124 to 126 | Oc1ccc2cc(Br)cc(F)c2c1
95 | 109 to 111 | CSc1cnc2c(c1)CCC(c1ccc(Cl)c(Cl)c1)O2 (stereo not given)
96 | 243 to 245 | COc1ccc(C2S(=O)(=O)CCCS2(=O)=O)cc1OC
97 | 164 to 168 | O=C(NC(Cc1ccccc1)c1ncc(C(F)(F)F)cc1Cl)c1c(Cl)cccc1Cl (stereo not given)
98 | 78 to 91 | CCCCCCCSc1nn2c(=O)c(C)c(F)nc2s1

Row | SMILES | melting point [°C]
99 | N#Cc1nn(-c2c(Cl)cc(C(F)(F)F)cc2Cl)cc1-c1ccccc1C(F)(F)F | 142 to 143
100 | O=C1c2c(Cl)cccc2-n2cnc(-c3cccs3)c2[C@@H]2CCCN12 | 226 to 227
